From ChEMBL document CHEMBL1132600 (J Med Chem, 1999)
pKi: −log10 of the molar value.

Each compound was assayed against Cannabinoid receptor 1 (Rattus norvegicus, UniProt P20272) (assay: Tested for binding affinity to Cannabinoid receptor 1).
Cannabinoid receptor 1, sequence (P20272 whole entry): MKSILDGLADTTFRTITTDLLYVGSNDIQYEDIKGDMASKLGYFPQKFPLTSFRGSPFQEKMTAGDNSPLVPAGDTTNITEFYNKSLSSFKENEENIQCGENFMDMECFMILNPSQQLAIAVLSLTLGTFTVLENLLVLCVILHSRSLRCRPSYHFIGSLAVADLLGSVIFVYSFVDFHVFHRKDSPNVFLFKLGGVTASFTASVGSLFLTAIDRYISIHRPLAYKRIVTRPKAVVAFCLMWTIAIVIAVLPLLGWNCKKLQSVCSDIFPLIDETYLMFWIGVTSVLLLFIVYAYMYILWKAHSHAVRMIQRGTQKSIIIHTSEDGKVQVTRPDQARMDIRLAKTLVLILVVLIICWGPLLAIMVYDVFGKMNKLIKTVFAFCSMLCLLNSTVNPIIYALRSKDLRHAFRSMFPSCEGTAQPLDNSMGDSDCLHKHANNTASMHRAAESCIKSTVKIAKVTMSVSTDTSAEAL

Row | Structure (SMILES) | pKi
1 | CCCCC/C=C\C/C=C\C/C=C\C/C=C\CCC(C)(C)C(=O)NCCO | 7.14
2 | CCCCC/C=C\C/C=C\CCCCCCCC(=O)N[C@@H](C)CO | < 5.00
3 | CCCCC/C=C\C/C=C\C/C=C\C/C=C\CCCC(=O)NC[C@H](C)O | 7.59
4 | CCCCCCCC/C=C\CCCCCCCC(=O)N[C@@H](C)CO | < 5.00
5 | CCCCC/C=C\C/C=C\C/C=C\C/C=C\CCCC(=O)NC1CCC(O)CC1 (stereo not drawn) | 6.66
6 | CCCCCCCC/C=C\CCCCCCCC(=O)NCCO [OLEOYLETHANOLAMIDE] | < 5.00
7 | CCCCCCCCCCCCCCCCCC(=O)NCCO [N-(2-HYDROXYETHYL)STEARAMIDE] | 6.66
8 | CCCCC/C=C\C/C=C\C/C=C\C/C=C\CCCC(=O)NCCF | 8.07
9 | CCCCC/C=C\C/C=C\C/C=C\C/C=C\CCCC(=O)NC(C)(C)CO | 6.82
10 | CCCCC/C=C\C/C=C\C/C=C\C/C=C\CCCC(=O)Nc1ccc(CO)cc1 | < 5.52
11 | CCCCC/C=C\C/C=C\C/C=C\C/C=C\CCCC(=O)NC[C@@H](C)O | 6.92
12 | CCCCC/C=C\C/C=C\C/C=C\C/C=C\CCCC(=O)N(C)CCO | 5.30
13 | CCCCC/C=C\C/C=C\C/C=C\C/C=C\CCCC(N)=O [ARACHIDONAMIDE] | 5.02
